Reference: article PMC10052977, “α,ω-Diacyl-Substituted Analogues of Natural and Unnatural Polyamines: Identification of Potent Bactericides That Selectively Target Bacterial Membranes” (International Journal of Molecular Sciences, 2023)
Converted amounts (≈) assume the structure as drawn.

Key:
[1] = system: Staphylococcus aureus ATCC 25923 or ATCC 29213; experiment: MIC, broth dilution (CA-SFM); type: cell-based; conditions: Staphylococcus aureus ATCC 25923 or ATCC 29213; mean (n = 3); read-out: MIC S. a
MRSA ATCC 43300 = experiment: MIC, CO-ADD broth microdilution; type: cell-based, Staphylococcus aureus; conditions: Staphylococcus aureus; MRSA ATCC 43300; mean (n = 2); read-out: MIC MRSA
[2] = system: Escherichia coli ATCC 25922; experiment: MIC, CO-ADD broth microdilution; type: cell-based; conditions: ATCC25922, mean (n = 2)
[3] = system: Pseudomonas aeruginosa PAO1 or ATCC 27853; experiment: MIC, broth dilution (CA-SFM); type: cell-based; conditions: mean (n = 3)
[4] = system: Klebsiella pneumoniae ATCC700603; experiment: MIC, CO-ADD broth microdilution; type: cell-based; conditions: mean (n = 2)
[5] = system: Acinetobacter baumannii ATCC19606; experiment: MIC, CO-ADD broth microdilution; type: cell-based; conditions: mean (n = 2)
[6] = system: Candida albicans ATCC90028; experiment: Antifungal MIC, CO-ADD; type: cell-based; conditions: mean (n = 2)
Method: (§1) For the antifungal assay, fungi strains were cultured for 3 days on YPD agar at 30 °C. A yeast suspension of 1 × 10^6 to 5 × 10^6 CFU/mL was prepared from five colonies. These stock suspensions were diluted with yeast nitrogen base (YNB) (Becton Dickinson, 233520) broth to a final concentration of 2.5 × 10^3 CFU/mL. […] Plates were covered and incubated at 35 °C for 36 h without shaking. C. albicans MICs were determined by measuring the absorbance at OD530. […] Fluconazole was used as a positive fungal inhibitor standard for C. albicans and C. neoformans. […] Quality control (QC) of the assays was determined by antimicrobial controls and Z’-factor (using positive and negative controls).

[7] = system: Cryptococcus neoformans ATCC208821; experiment: Antifungal MIC, CO-ADD; type: cell-based; conditions: ATCC208821, Cryptococcus neoformans ATCC208821, mean (n = 2)
Method: as §1

[8] = Cytotoxicity assay (resazurin); type: cell-based, human; conditions: human; HEK293 cells; mean (n = 2); highest dose tested 32 μg/mL; read-out: Cytotoxicity (concentration of compound at 50% cytotoxicity, IC50)
human red blood cells = experiment: Hemolytic assay; type: cell-based; conditions: mean (n = 2)
Method: Human whole blood was washed three times with 3 volumes of 0.9% NaCl and then resuspended in same to a concentration of 0.5 × 10^8 cells/mL, as determined by manual cell count in a Neubauer hemocytometer. The washed cells were then added to the 384-well compound-containing plates for a final volume of 50 μL. After a 10 min shake on a plate shaker, the plates were then incubated for 1 h at 37 °C. After incubation, the plates were centrifuged at 1000× g for 10 min to pellet cells and debris; 25 μL of the supernatant was then transferred to a polystyrene 384-well assay plate. Hemolysis was determined by measuring the supernatant absorbance at […] (OD405). The absorbance was measured using a Tecan M1000 Pro monochromator plate reader. HC10 and HC50 (concentration at 10% and 50% hemolysis, respectively) were calculated by curve fitting the inhibition values vs. log (concentration) using a sigmoidal dose–response function with variable fitting values for top, bottom and slope.

| MIC [1] [µM] | MIC (MRSA ATCC 43300) [µM] | MIC [2] [µM] | MIC [3] [µM] | MIC [4] [µM] | MIC [5] [µM] | MIC [6] [µM] | MIC [7] [µM] | Structure (SMILES) | IC50 at 20 h [8] [µM] | Hemolysis (HC10, concentration at 10% hemolytic activity) (human red blood cells) [µM] |
| --- | --- | --- | --- | --- | --- | --- | --- | --- | --- | --- |
| 12.5 | ≤ 0.29 | 4.6 | 100 | > 36.6 | > 36.6 | > 36.6 | > 36.6 | O=C(CC(c1ccccc1)c1ccccc1)NCCCNCCCCCCNCCCNC(=O)CC(c1ccccc1)c1ccccc1.O=C(O)C(F)(F)F.O=C(O)C(F)(F)F [Compound 15b, N^1,N^6-Bis(3-(3,3-diphenylpropanamido)propyl)hexane-1,6-diaminium 2,2,2-trifluoroacetate] | > 36.6 | >36.6 |
| 6.25 | ≤ 0.28 | 2.3 | 100 | > 36 | > 36 | > 36 | ≤ 0.28 | O=C(CC(c1ccccc1)c1ccccc1)NCCCNCCCCCCCNCCCNC(=O)CC(c1ccccc1)c1ccccc1.O=C(O)C(F)(F)F.O=C(O)C(F)(F)F [Compound 15c, N^1,N^7-Bis(3-(3,3-diphenylpropanamido)propyl)heptane-1,7-diaminium 2,2,2-trifluoroacetate] | > 36 | >36.0 |
| 3.13 | ≤ 0.27 | ≤ 0.27 | 200 | > 34.4 | 2.15 | > 34.4 | > 34.4 | O=C(CC(c1ccccc1)c1ccccc1)NCCCNCCCCCCCCCCNCCCNC(=O)CC(c1ccccc1)c1ccccc1.O=C(O)C(F)(F)F.O=C(O)C(F)(F)F [Compound 15e, N^1,N^10-Bis(3-(3,3-diphenylpropanamido)propyl)decane-1,10-diaminium 2,2,2-trifluoroacetate] | > 34.4 | >34.4 |
| 1.56 | ≤ 0.26 | 2.1 | 200 | > 33.4 | 1 | 8.34 | ≤ 0.28 | O=C(CC(c1ccccc1)c1ccccc1)NCCCNCCCCCCCCCCCCNCCCNC(=O)CC(c1ccccc1)c1ccccc1.O=C(O)C(F)(F)F.O=C(O)C(F)(F)F [Compound 15f, N^1,N^12-Bis(3-(3,3-diphenylpropanamido)propyl)dodecane-1,12-diaminium 2,2,2-trifluoroacetate] | 5.46 | 1.17 |
| 24 (≈ 19.6 µg/mL) | ≤ 0.24 | > 30.6 | 480 (≈ 392 µg/mL) | > 30.6 | > 30.6 | > 30.6 | > 30.6 | O=C(CCC(=O)NCCC(c1ccccc1)c1ccccc1)NCCCNCCCCCCNCCCNC(=O)CCC(=O)NCCC(c1ccccc1)c1ccccc1 [Compound 16b, N^1,N^6-Bis(3-(4-((3,3-diphenylpropyl)amino)-4-oxobutanamido)propyl)hexane-1,6-diaminium 2,2,2-trifluroracetate] | > 30.6 | >30.6 |
| 24 | ≤ 0.24 | > 30.2 | 480 | > 30.2 | > 30.2 | > 30.2 | 30.2 | O=C(CCC(=O)NCCC(c1ccccc1)c1ccccc1)NCCCNCCCCCCCNCCCNC(=O)CCC(=O)NCCC(c1ccccc1)c1ccccc1.O=C(O)C(F)(F)F.O=C(O)C(F)(F)F [Compound 16c, N^1,N^7-Bis(3-(4-((3,3-diphenylpropyl)amino)-4-oxobutanamido)propyl)heptane-1,7-diaminium 2,2,2-trifluoroacetate] | > 30.2 | >30.2 |
| 12.5 | ≤ 0.23 | > 29.8 | 300 | > 29.8 | > 29.8 | > 29.8 | > 29.8 | O=C(CCC(=O)NCCC(c1ccccc1)c1ccccc1)NCCCNCCCCCCCCNCCCNC(=O)CCC(=O)NCCC(c1ccccc1)c1ccccc1.O=C(O)C(F)(F)F.O=C(O)C(F)(F)F [Compound 16d, N^1,N^8-Bis(3-(4-((3,3-diphenylpropyl)amino)-4-oxobutanamido)propyl)octane-1,8-diaminium 2,2,2-trifluoroacetate] | > 29.8 | >29.8 |
| 12.5 | ≤ 0.23 | 14.5 | 200 | 29.1 | 29.1 | 29.1 | ≤ 0.28 | O=C(CCC(=O)NCCC(c1ccccc1)c1ccccc1)NCCCNCCCCCCCCCCNCCCNC(=O)CCC(=O)NCCC(c1ccccc1)c1ccccc1.O=C(O)C(F)(F)F.O=C(O)C(F)(F)F [Compound 16e, N^1,N^10-Bis(3-(4-((3,3-diphenylpropyl)amino)-4-oxobutanamido)propyl)decane-1,10-diaminium 2,2,2-trifluoroacetate] | 17.3 | 17.9 |
| 3.13 (≈ 2.82 µg/mL) | ≤ 0.22 | > 28.3 | 300 (≈ 270 µg/mL) | > 28.3 | > 28.3 | > 28.3 | > 28.3 | O=C(CCC(=O)NCCC(c1ccccc1)c1ccccc1)NCCCNCCCCCCCCCCCCNCCCNC(=O)CCC(=O)NCCC(c1ccccc1)c1ccccc1 [Compound 16f, N^1,N^12-Bis(3-(4-((3,3-diphenylpropyl)amino)-4-oxobutanamido)propyl)dodecane-1,12-diaminium 2,2,2-trifluroracetate] | > 28.3 | 3.17 |
| 6.25 | < 0.26 | 1.03 | 300 | > 33 | 8.24 | > 33 | < 0.26 | O=C(NCCCNCCCCNCCCNC(=O)C(c1ccccc1)(c1ccccc1)c1ccccc1)C(c1ccccc1)(c1ccccc1)c1ccccc1.O=C(O)C(F)(F)F.O=C(O)C(F)(F)F [Compound 17a, N^1,N^4-Bis(3-(2,2,2-triphenylacetamido)propyl)butane-1,4-diaminium 2,2,2-trifluoroacetate] | 0.329 | 5.57 |
| 6.25 | < 0.25 | 4 | 300 | 32 | 4 | 16 | < 0.25 | O=C(NCCCNCCCCCCNCCCNC(=O)C(c1ccccc1)(c1ccccc1)c1ccccc1)C(c1ccccc1)(c1ccccc1)c1ccccc1.O=C(O)C(F)(F)F.O=C(O)C(F)(F)F [Compound 17b, N^1,N^6-Bis(3-(2,2,2-triphenylacetamido)propyl)hexane-1,6-diaminium 2,2,2-trifluoroacetate] | ≤ 0.25 | 6.27 |
| 12.5 | < 0.25 | 7.9 | 300 | 31.6 | 3.95 | 15.8 | 15.8 | O=C(NCCCNCCCCCCCNCCCNC(=O)C(c1ccccc1)(c1ccccc1)c1ccccc1)C(c1ccccc1)(c1ccccc1)c1ccccc1.O=C(O)C(F)(F)F.O=C(O)C(F)(F)F [Compound 17c, N^1,N^7-Bis(3-(2,2,2-triphenylacetamido)propyl)heptane-1,7-diaminium 2,2,2-trifluoroacetate] | ≤ 0.247 | 8.16 |
| 6.25 | < 0.24 | 15.6 | 300 | > 31.2 | 7.79 | 15.6 | < 0.24 | O=C(NCCCNCCCCCCCCNCCCNC(=O)C(c1ccccc1)(c1ccccc1)c1ccccc1)C(c1ccccc1)(c1ccccc1)c1ccccc1.O=C(O)C(F)(F)F.O=C(O)C(F)(F)F [Compound 17d, N^1,N^8-Bis(3-(2,2,2-triphenylacetamido)propyl)octane-1,8-diaminium 2,2,2-trifluoroacetate] | ≤ 0.243 | 0.719 |
